Experiment [1] addresses human α2δ-1 subunit of Cav2.2 calcium channel (Homo sapiens (Human), UniProt P54289). The experiment in a line: Binding assay to human α2δ-1 subunit of Cav2.2 calcium channel ([3H]-Gabapentin). The note with it: read-out: Ki (nM) α2δ-1. In a few lines:
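Radioactivity on dried GF/C filters quantified by scintillation after filtration and three cold Tris-HCl (pH 7.4) washes. Incubation ran 60 min at 27° C with [3H]-gabapentin; 10 μM pregabalin gave nonspecific binding.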

Experiment [2] deals with human norepinephrine transporter (NET) (Homo sapiens (Human), UniProt P23975). The experiment in a line: Binding assay to human norepinephrine transporter (NET) ([3H]-Nisoxetin). The note with it: Table 2, dual compounds; [3H]-Nisoxetin binding. In a few lines: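 NET-enriched membranes (5 μg) incubated with 5 nM [3H]-nisoxetin in 50 mM Tris-HCl, 120 mM NaCl, 5 mM KCl, pH 7.4, 60 min at 4 °C. Bound ligand separated by filtration on PEI-soaked GF/C and counted by scintillation; nonspecific binding defined with 1 μM competitor.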

Where [3] appears, read: Table 2, dual compounds, [3H]-Gabapentin binding.
Where [4] appears, read: binding to α2δ-1, [3H]-Gabapentin.

Molecules are shown by their SMILES. Read-outs that look alike come from different tables or passages of the source. Bounds are passed on as bounds.

Experimental findings from patent US10590140B2, “Tetrahydropyrimidodiazepine and dihydropyridodiazepine compounds for treating pain and pain related conditions” (ESTEVE PHARMACEUTICALS, S.A., priority 2016, dated 2020) are described below.

Sequence of human norepinephrine transporter (NET) (P23975 whole entry): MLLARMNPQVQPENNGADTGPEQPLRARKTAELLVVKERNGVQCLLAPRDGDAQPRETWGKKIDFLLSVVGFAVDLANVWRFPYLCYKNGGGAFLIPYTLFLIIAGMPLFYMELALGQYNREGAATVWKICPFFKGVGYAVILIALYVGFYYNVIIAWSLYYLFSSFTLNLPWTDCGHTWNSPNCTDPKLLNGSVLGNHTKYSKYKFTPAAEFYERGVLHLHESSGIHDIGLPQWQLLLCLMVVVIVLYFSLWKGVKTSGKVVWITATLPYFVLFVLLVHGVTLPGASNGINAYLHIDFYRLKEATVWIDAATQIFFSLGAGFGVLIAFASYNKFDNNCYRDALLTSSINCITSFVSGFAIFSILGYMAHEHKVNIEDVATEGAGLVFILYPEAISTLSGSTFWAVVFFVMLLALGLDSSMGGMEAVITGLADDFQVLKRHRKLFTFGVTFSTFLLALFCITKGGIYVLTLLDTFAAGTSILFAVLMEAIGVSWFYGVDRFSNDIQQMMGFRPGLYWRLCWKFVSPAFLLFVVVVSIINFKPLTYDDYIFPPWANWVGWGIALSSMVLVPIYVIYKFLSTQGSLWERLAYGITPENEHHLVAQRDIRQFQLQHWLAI
Sequence of human α2δ-1 subunit of Cav2.2 calcium channel (P54289 25-1103): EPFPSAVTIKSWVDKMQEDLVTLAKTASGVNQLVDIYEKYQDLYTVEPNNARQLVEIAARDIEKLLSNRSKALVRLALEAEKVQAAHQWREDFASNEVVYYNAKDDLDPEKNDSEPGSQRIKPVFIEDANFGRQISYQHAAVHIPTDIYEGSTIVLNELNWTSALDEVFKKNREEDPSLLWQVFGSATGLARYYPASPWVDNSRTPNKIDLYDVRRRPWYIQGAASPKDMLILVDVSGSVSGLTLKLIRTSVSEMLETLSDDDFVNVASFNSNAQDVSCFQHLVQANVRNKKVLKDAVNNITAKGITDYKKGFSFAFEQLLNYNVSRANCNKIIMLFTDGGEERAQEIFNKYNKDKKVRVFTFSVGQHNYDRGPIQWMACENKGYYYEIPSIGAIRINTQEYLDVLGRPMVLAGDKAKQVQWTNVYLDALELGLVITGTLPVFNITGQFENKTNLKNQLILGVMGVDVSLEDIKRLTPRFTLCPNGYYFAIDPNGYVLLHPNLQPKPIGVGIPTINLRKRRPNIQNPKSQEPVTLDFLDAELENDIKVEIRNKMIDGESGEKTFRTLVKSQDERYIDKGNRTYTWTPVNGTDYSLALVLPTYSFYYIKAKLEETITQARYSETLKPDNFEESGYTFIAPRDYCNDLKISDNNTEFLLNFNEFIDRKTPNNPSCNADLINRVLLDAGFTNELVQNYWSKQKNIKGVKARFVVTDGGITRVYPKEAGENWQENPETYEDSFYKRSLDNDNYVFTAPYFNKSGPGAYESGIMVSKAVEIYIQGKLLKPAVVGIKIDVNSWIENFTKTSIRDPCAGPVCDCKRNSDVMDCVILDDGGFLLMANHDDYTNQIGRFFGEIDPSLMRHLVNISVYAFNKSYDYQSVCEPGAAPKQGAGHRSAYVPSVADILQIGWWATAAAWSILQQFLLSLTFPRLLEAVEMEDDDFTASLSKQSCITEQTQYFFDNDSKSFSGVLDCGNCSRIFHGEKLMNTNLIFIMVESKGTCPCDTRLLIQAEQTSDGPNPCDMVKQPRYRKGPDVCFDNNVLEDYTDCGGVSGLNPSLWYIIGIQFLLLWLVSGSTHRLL

For the molecule `CCc1ncc2c(n1)N(C)CCN(c1cccc(CO[C@H](CCNC)c3ccccc3)c1)C2=O` [Example 356, (R)-2-ethyl-9-methyl-6-(3-((3-(methylamino)-1-phenylpropoxy)methyl)phenyl)-6,7,8,9-tetrahydro-5H-pyrimido[4,5-e][1,4]diazepin-5-one], the values for the Ki in experiment [1] (setting [3]), in experiment [1] (setting [4]) and in experiment [2] were 500 to 3000 nM, 500 to 3000 nM and 100 to 500 nM, respectively.

Consider `CNCCC(Oc1cccc(CN2CCN(C)c3nc(SC)ncc3C2=O)c1)c1ccccc1` (stereo not drawn) [Example 366, 9-methyl-6-(3-(3-(methylamino)-1-phenylpropoxy)benzyl)-2-(methylthio)-6,7,8,9-tetrahydro-5H-pyrimido[4,5-e][1,4]diazepin-5-one], for which the Ki – broadly, a measure of affinity in units of concentration, obtained from inhibition or displacement – in experiment [1] (setting [3]) was more than 3000 nM; in experiment [1] (setting [4]) it was more than 3000 nM; in experiment [2], 500 to 1000 nM.

As to `CNCCC(OCc1cccc(CN2CCN(C)c3nc(SC)ncc3C2=O)c1)c1ccccc1` (stereo not drawn) [Example 367, 9-methyl-6-(3-((3-(methylamino)-1-phenylpropoxy)methyl)benzyl)-2-(methylthio)-6,7,8,9-tetrahydro-5H-pyrimido[4,5-e][1,4]diazepin-5-one], the Ki in experiment [1] (setting [3]) was more than 3000 nM; in experiment [1] (setting [4]) it was more than 3000 nM; in experiment [2], 100 to 500 nM.

Consider `CNCCC(OCc1ccc(CN2CCN(C)c3nc(SC)ncc3C2=O)cc1)c1ccccc1` (stereo not drawn) [Example 368, 9-methyl-6-(4-((3-(methylamino)-1-phenylpropoxy)methyl)benzyl)-2-(methylthio)-6,7,8,9-tetrahydro-5H-pyrimido[4,5-e][1,4]diazepin-5-one], for which the results for the inhibitory constant (Ki) in experiment [1] (setting [3]), in experiment [1] (setting [4]) and in experiment [2] were more than 3000 nM, more than 3000 nM and 100 to 500 nM, respectively.

Regarding `CNCCC(Oc1ccc(CN2CCN(C)c3nc(SC)ncc3C2=O)cc1)c1ccccc1` (stereo not drawn) [Example 369, 9-methyl-6-(4-(3-(methylamino)-1-phenylpropoxy)benzyl)-2-(methylthio)-6,7,8,9-tetrahydro-5H-pyrimido[4,5-e][1,4]diazepin-5-one], the results for the Ki in experiment [1] (setting [3]), in experiment [1] (setting [4]) and in experiment [2] were 500 to 3000 nM, 500 to 3000 nM and less than 100 nM, respectively.

For the molecule `CNCC(OCc1cccc(CN2CCN(C)c3nc(SC)ncc3C2=O)c1)c1ccccc1` (stereo not drawn) [Example 372, 9-methyl-6-(3-((2-(methylamino)-1-phenylethoxy)methyl)benzyl)-2-(methylthio)-6,7,8,9-tetrahydro-5H-pyrimido[4,5-e][1,4]diazepin-5-one], the Ki in experiment [1] (setting [3]) is more than 3000 nM; in experiment [1] (setting [4]), more than 3000 nM; in experiment [2], 100 to 500 nM.

Regarding `CNCC(OCc1ccc(CN2CCN(C)c3nc(SC)ncc3C2=O)cc1)c1ccccc1` (stereo not drawn) [Example 374, 9-methyl-6-(4-((2-(methylamino)-1-phenylethoxy)methyl)benzyl)-2-(methylthio)-6,7,8,9-tetrahydro-5H-pyrimido[4,5-e][1,4]diazepin-5-one], the Ki in experiment [1] (setting [3]) is more than 3000 nM; in experiment [1] (setting [4]), more than 3000 nM; in experiment [2] it was 100 to 500 nM.

`CNCCC(Oc1ccc(CN2CCN(C)c3ccncc3C2=O)cc1)c1cccs1` (stereo not drawn) [Example 381, 1-methyl-4-(4-(3-(methylamino)-1-(thiophen-2-yl)propoxy)benzyl)-1,2,3,4-tetrahydro-5H-pyrido[4,3-e][1,4]diazepin-5-one]: the Ki in experiment [1] (setting [3]), in experiment [1] (setting [4]) and in experiment [2] was 100 to 500 nM each time.

Take `CNCC[C@H](Oc1ccc(CN2CCN(C)c3ccncc3C2=O)cc1)c1cccs1` [Example 382, (S)-1-methyl-4-(4-(3-(methylamino)-1-(thiophen-2-yl)propoxy)benzyl)-1,2,3,4-tetrahydro-5H-pyrido[4,3-e][1,4]diazepin-5-one]: the Ki in experiment [1] (setting [3]), in experiment [1] (setting [4]) and in experiment [2] was 100 to 500 nM each time.

`CCNc1cc2c(cn1)C(=O)N(Cc1ccc(O[C@@H](CCNC)c3cccs3)cc1)CCN2C` [Example 383, (S)-8-(ethylamino)-1-methyl-4-(4-(3-(methylamino)-1-(thiophen-2-yl)propoxy)benzyl)-1,2,3,4-tetrahydro-5H-pyrido[4,3-e][1,4]diazepin-5-one]: the Ki in experiment [1] (setting [3]), in experiment [1] (setting [4]) and in experiment [2] was 100 to 500 nM in each case.

Consider `CNCC[C@H](Oc1ccc(CN2CCN(C)c3cc(OC)ncc3C2=O)cc1)c1cccs1` [Example 385, (S)-8-methoxy-1-methyl-4-(4-(3-(methylamino)-1-(thiophen-2-yl)propoxy)benzyl)-1,2,3,4-tetrahydro-5H-pyrido[4,3-e][1,4]diazepin-5-one], for which the Ki in experiment [1] (setting [3]), in experiment [1] (setting [4]) and in experiment [2] was 100 to 500 nM in each case.

On to `CNCCC(Oc1ccc(CN2CCN(C)c3nc(OC)ncc3C2=O)cc1)c1sccc1C` (stereo not drawn) [Example 388, 2-methoxy-9-methyl-6-(4-(3-(methylamino)-1-(3-methylthiophen-2-yl)propoxy)benzyl)-6,7,8,9-tetrahydro-5H-pyrimido[4,5-e][1,4]diazepin-5-one], for which the Ki in experiment [1] (setting [3]) is more than 3000 nM; in experiment [1] (setting [4]), more than 3000 nM; in experiment [2] it was less than 100 nM.

In the case of `CCNc1ncc2c(n1)N(C)CCN(Cc1ccc(COC(CCNC)c3ccccc3)cc1)C2=O` (stereo not drawn) [Example 405, 2-(ethylamino)-9-methyl-6-(4-((3-(methylamino)-1-phenylpropoxy)methyl)benzyl)-6,7,8,9-tetrahydro-5H-pyrimido[4,5-e][1,4]diazepin-5-one], the Ki in experiment [1] (setting [3]) is more than 3000 nM; in experiment [1] (setting [4]) it was more than 3000 nM; in experiment [2] it was 100 to 500 nM.

For the molecule `CCNc1ncc2c(n1)N(C)CCN(Cc1cccc(COC(CCNC)c3ccccc3)c1)C2=O` (stereo not drawn) [Example 406, 2-(ethylamino)-9-methyl-6-(3-((3-(methylamino)-1-phenylpropoxy)methyl)benzyl)-6,7,8,9-tetrahydro-5H-pyrimido[4,5-e][1,4]diazepin-5-one], the results for the Ki in experiment [1] (setting [3]), in experiment [1] (setting [4]) and in experiment [2] were more than 3000 nM, more than 3000 nM and 100 to 500 nM, respectively.

Regarding `CCNc1ncc2c(n1)N(C)CCN(Cc1ccc(OC(CCNC)c3ccccc3)cc1)C2=O` (stereo not drawn) [Example 408, 2-(ethylamino)-9-methyl-6-(4-(3-(methylamino)-1-phenylpropoxy)benzyl)-6,7,8,9-tetrahydro-5H-pyrimido[4,5-e][1,4]diazepin-5-one], the Ki is 500 to 3000 nM in experiment [1] (setting [3]), 500 to 3000 nM in experiment [1] (setting [4]) and less than 100 nM in experiment [2].

In the case of `CCNc1ncc2c(n1)N(C)CCN(Cc1cccc(COC(CNC)c3ccccc3)c1)C2=O` (stereo not drawn) [Example 411, 2-(ethylamino)-9-methyl-6-(3-((2-(methylamino)-1-phenylethoxy)methyl)benzyl)-6,7,8,9-tetrahydro-5H-pyrimido[4,5-e][1,4]diazepin-5-one], the Ki in experiment [1] (setting [3]) is more than 3000 nM; in experiment [1] (setting [4]) it was more than 3000 nM; in experiment [2], 500 to 1000 nM.

For the molecule `CCNc1ncc2c(n1)N(C)CCN(Cc1ccc(COC(CNC)c3ccccc3)cc1)C2=O` (stereo not drawn) [Example 413, 2-(ethylamino)-9-methyl-6-(4-((2-(methylamino)-1-phenylethoxy)methyl)benzyl)-6,7,8,9-tetrahydro-5H-pyrimido[4,5-e][1,4]diazepin-5-one], the Ki was in the range of 500 to 3000 nM in experiment [1] (setting [3]), 500 to 3000 nM in experiment [1] (setting [4]) and 100 to 500 nM in experiment [2].

As for `CCNc1ncc2c(n1)N(C)CCN(Cc1ccc(O[C@@H](CCNC)c3ccccc3)cc1)C2=O` [Example 414, (S)-2-(ethylamino)-9-methyl-6-(4-(3-(methylamino)-1-phenylpropoxy)benzyl)-6,7,8,9-tetrahydro-5H-pyrimido[4,5-e][1,4]diazepin-5-one], the Ki in experiment [1] (setting [3]) is 500 to 3000 nM; in experiment [1] (setting [4]), 500 to 3000 nM; in experiment [2], less than 100 nM.

In the case of `CCNc1ncc2c(n1)N(C)CCN(Cc1ccc(O[C@H](CCNC)c3ccccc3)cc1)C2=O` [Example 415, (R)-2-(ethylamino)-9-methyl-6-(4-(3-(methylamino)-1-phenylpropoxy)benzyl)-6,7,8,9-tetrahydro-5H-pyrimido[4,5-e][1,4]diazepin-5-one], the Ki in experiment [1] (setting [3]) fell in the range of 500 to 3000 nM; in experiment [1] (setting [4]) it was 500 to 3000 nM; in experiment [2], 100 to 500 nM.

With `CNCC[C@H](Oc1ccc(CN2CCN(C)c3nc(N(C)C)ncc3C2=O)cc1)c1cccs1` [Example 419, (S)-2-(dimethylamino)-9-methyl-6-(4-(3-(methylamino)-1-(thiophen-2-yl)propoxy)benzyl)-6,7,8,9-tetrahydro-5H-pyrimido[4,5-e][1,4]diazepin-5-one], the inhibition constant Ki in experiment [1] (setting [3]), in experiment [1] (setting [4]) and in experiment [2] was 100 to 500 nM in each case.

On to `CNCCC(OCc1ccc(CN2CCN(C)c3nc(C)ncc3C2=O)cc1)c1ccccc1` (stereo not drawn) [Example 422, 2,9-dimethyl-6-(4-((3-(methylamino)-1-phenylpropoxy)methyl)benzyl)-6,7,8,9-tetrahydro-5H-pyrimido[4,5-e][1,4]diazepin-5-one], for which the values for the Ki in experiment [1] (setting [3]), in experiment [1] (setting [4]) and in experiment [2] were more than 3000 nM, more than 3000 nM and 500 to 1000 nM, respectively.

Consider `CNCCC(OCc1cccc(CN2CCN(C)c3nc(C)ncc3C2=O)c1)c1ccccc1` (stereo not drawn) [Example 423, 2,9-dimethyl-6-(3-((3-(methylamino)-1-phenylpropoxy)methyl)benzyl)-6,7,8,9-tetrahydro-5H-pyrimido[4,5-e][1,4]diazepin-5-one], for which the Ki was more than 3000 nM in experiment [1] (setting [3]), more than 3000 nM in experiment [1] (setting [4]) and 100 to 500 nM in experiment [2].

Consider `CNCCC(Oc1ccc(CN2CCN(C)c3nc(C)ncc3C2=O)cc1)c1ccccc1` (stereo not drawn) [Example 425, 2,9-dimethyl-6-(4-(3-(methylamino)-1-phenylpropoxy)benzyl)-6,7,8,9-tetrahydro-5H-pyrimido[4,5-e][1,4]diazepin-5-one], for which the Ki in experiment [1] (setting [3]) was more than 3000 nM; in experiment [1] (setting [4]), more than 3000 nM; in experiment [2], less than 100 nM.
